Data from patent US20250353820A1, “ANTIVIRAL PYRAZOLOPYRIDINONE COMPOUNDS” (Novartis AG, priority 2019, published 2025).

Target: human HSV DNA polymerase UL30 (Human herpesvirus 1 (strain 17) (HHV-1) (Human herpes simplex virus 1), UniProt P04293)
Assay: biochemical
Conditions: 625 pM HSV polymerase, 20 minutes at room temperature; read-out: HSV-polymerase Biochemical IC50

SMILES | IC50 [nM]
CN(C)CC(=O)NCC(C)(C)S(=O)(=O)C1(CN2CCc3c(C(=O)NCc4ccc(C#N)cc4)nn(C)c3C2=O)CC1 [Example 78, N-(4-Cyanobenzyl)-6-((1-((1-(2-(dimethylamino)acetamido)-2-methylpropan-2-yl)sulfonyl)cyclopropyl)methyl)-1-methyl-7-oxo-4,5,6,7-tetrahydro-1H-pyrazolo[3,4-c]pyridine-3-carboxamide] | 206
Cn1nc(C(=O)NCc2ccc(C#N)cc2)c2c1C(=O)N(CC1(S(=O)(=O)C(C)(C)COC(F)(F)CO)CC1)CC2 [Example 84, N-(4-Cyanobenzyl)-6-((1-((1-(1,1-difluoro-2-hydroxyethoxy)-2-methylpropan-2-yl)sulfonyl)cyclopropyl)methyl)-1-methyl-7-oxo-4,5,6,7-tetrahydro-1H-pyrazolo[3,4-c]pyridine-3-carboxamide] | 45
Cn1nc(C(=O)NCc2ccc(C#N)cc2)c2c1C(=O)N(CC1(S(=O)(=O)C(C)(C)COC(F)(F)CN)CC1)CC2 [Example 85, 6-((1-((1-(2-Amino-1,1-difluoroethoxy)-2-methylpropan-2-yl)sulfonyl)cyclopropyl)methyl)-N-(4-cyanobenzyl)-1-methyl-7-oxo-4,5,6,7-tetrahydro-1H-pyrazolo[3,4-c]pyridine-3-carboxamide] | 49
Cn1nc(C(=O)NCc2ccc(C#N)cc2)c2c1C(=O)N(CC1(S(=O)(=O)C(C)(C)COCC(C)(C)O)CC1)CC2 [Example 86, N-(4-Cyanobenzyl)-6-((1-((1-(2-hydroxy-2-methylpropoxy)-2-methylpropan-2-yl)sulfonyl)cyclopropyl)methyl)-1-methyl-7-oxo-4,5,6,7-tetrahydro-1H-pyrazolo[3,4-c]pyridine-3-carboxamide] | 159
Cn1nc(C(=O)NCc2ccc(Cl)cc2)c2c1C(=O)N(CC1(S(=O)(=O)C(C)(C)COCCO)CC1)CC2 [Example 88, N-(4-Chlorobenzyl)-6-((1-((1-(2-hydroxyethoxy)-2-methylpropan-2-yl)sulfonyl)cyclopropyl)methyl)-1-methyl-7-oxo-4,5,6,7-tetrahydro-1H-pyrazolo[3,4-c]pyridine-3-carboxamide] | 39
Cn1nc(C(=O)NCc2ccc(C#N)cc2)c2c1C(=O)N(CC1(S(=O)(=O)C3(COCCN)CC3)CC1)CC2 [Example 96, 6-((1-((1-((2-aminoethoxy)methyl)cyclopropyl)sulfonyl)cyclopropyl)methyl)-N-(4-cyanobenzyl)-1-methyl-7-oxo-4,5,6,7-tetrahydro-1H-pyrazolo[3,4-c]pyridine-3-carboxamide] | 20
CNCCOCC(C)(C)S(=O)(=O)C1(CN2CCc3c(C(=O)NCc4ccc(C#N)cc4)nn(C)c3C2=O)CC1 [Example 101, N-(4-Cyanobenzyl)-1-methyl-6-((1-((2-methyl-1-(2-(methylamino)ethoxy)propan-2-yl)sulfonyl)cyclopropyl)methyl)-7-oxo-4,5,6,7-tetrahydro-1H-pyrazolo[3,4-c]pyridine-3-carboxamide] | 32
Cn1nc(C(=O)NCc2ccc(C#N)cc2)c2c1C(=O)N(CC1(S(=O)(=O)C(C)(C)COC3CNC3)CC1)CC2 [Example 102, 6-((1-((1-(Azetidin-3-yloxy)-2-methylpropan-2-yl)sulfonyl)cyclopropyl)methyl)-N-(4-cyanobenzyl)-1-methyl-7-oxo-4,5,6,7-tetrahydro-1H-pyrazolo[3,4-c]pyridine-3-carboxamide] | 42
Cn1nc(C(=O)NCc2ccc(C#N)cc2)c2c1C(=O)N(CC1(S(=O)(=O)C(C)(C)COCC(C)(C)N)CC1)CC2 [Example 103, 6-((1-((1-(2-Amino-2-methylpropoxy)-2-methylpropan-2-yl)sulfonyl)cyclopropyl)methyl)-N-(4-cyanobenzyl)-1-methyl-7-oxo-4,5,6,7-tetrahydro-1H-pyrazolo[3,4-c]pyridine-3-carboxamide] | 117
CN(C)CCOCC(C)(C)S(=O)(=O)C1(CN2CCc3c(C(=O)NCc4ccc(C#N)cc4)nn(C)c3C2=O)CC1 [Example 104, N-(4-Cyanobenzyl)-6-((1-((1-(2-(dimethylamino)ethoxy)-2-methylpropan-2-yl)sulfonyl)cyclopropyl)methyl)-1-methyl-7-oxo-4,5,6,7-tetrahydro-1H-pyrazolo[3,4-c]pyridine-3-carboxamide] | 108
CNC(=O)C(C)(C)S(=O)(=O)C1(CN2CCc3c(C(=O)NCc4ccc(Cl)cc4)nn(C)c3C2=O)CC1 [Example 110, N-(4-Chlorobenzyl)-1-methyl-6-((1-((2-methyl-1-(methylamino)-1-oxopropan-2-yl)sulfonyl)cyclopropyl)methyl)-7-oxo-4,5,6,7-tetrahydro-1H-pyrazolo[3,4-c]pyridine-3-carboxamide] | 166
Cn1nc(C(=O)NCc2ccc(C#N)cc2)c2c1C(=O)N(CC1(S(=O)(=O)C3(CCO)CC3)CC1)CC2 [Example 117, N-(4-Cyanobenzyl)-6-((1-((1-(2-hydroxyethyl)cyclopropyl)sulfonyl)cyclopropyl)methyl)-1-methyl-7-oxo-4,5,6,7-tetrahydro-1H-pyrazolo[3,4-c]pyridine-3-carboxamide] | 59
Cn1nc(C(=O)NCc2ccc(C#N)cc2)c2c1C(=O)N(CC1(S(=O)(=O)CC(C)(C)O)CC1)CC2 [Example 118, N-(4-Cyanobenzyl)-6-((1-((2-hydroxy-2-methylpropyl)sulfonyl)cyclopropyl)methyl)-1-methyl-7-oxo-4,5,6,7-tetrahydro-1H-pyrazolo[3,4-c]pyridine-3-carboxamide] | 412
Cn1nc(C(=O)NCc2ccc(Cl)cc2)c2c1C(=O)N(CC1(S(N)(=O)=O)CC1)CC2 [Example 121, N-(4-Chlorobenzyl)-1-methyl-7-oxo-6-((1-sulfamoylcyclopropyl)methyl)-4,5,6,7-tetrahydro-1H-pyrazolo[3,4-c]pyridine-3-carboxamide] | 671
CN(C)/C=N/S(=O)(=O)C1(CN2CCc3c(C(=O)NCc4ccc(Cl)cc4)nn(C)c3C2=O)CC1 [Example 122, (E)-N-(4-Chlorobenzyl)-6-((1-(N-((dimethylamino)methylene)sulfamoyl)cyclopropyl)methyl)-1-methyl-7-oxo-4,5,6,7-tetrahydro-1H-pyrazolo[3,4-c]pyridine-3-carboxamide] | 324
Cn1nc(C(=O)NCc2ccc(C#N)cc2)c2c1C(=O)N(CC1(S(=O)(=O)N3CCOCC3)CC1)CC2 [Example 124, N-(4-Cyanobenzyl)-1-methyl-6-((1-(morpholinosulfonyl)cyclopropyl)methyl)-7-oxo-4,5,6,7-tetrahydro-1H-pyrazolo[3,4-c]pyridine-3-carboxamide] | 121
Cn1nc(C(=O)NCc2ccc(C#N)cc2)c2c1C(=O)N(CC1(S(=O)(=O)N3CCC(O)CC3)CC1)CC2 [Example 125, N-(4-Cyanobenzyl)-6-((1-((4-hydroxypiperidin-1-yl)sulfonyl)cyclopropyl)methyl)-1-methyl-7-oxo-4,5,6,7-tetrahydro-1H-pyrazolo[3,4-c]pyridine-3-carboxamide] | 136
Cn1nc(C(=O)NCc2ccc(C#N)cc2)c2c1C(=O)N(CC1(S(=O)(=O)N3CC[C@@H](O)C3)CC1)CC2 [Example 126, (R)-N-(4-Cyanobenzyl)-6-((1-((3-hydroxypyrrolidin-1-yl)sulfonyl)cyclopropyl)methyl)-1-methyl-7-oxo-4,5,6,7-tetrahydro-1H-pyrazolo[3,4-c]pyridine-3-carboxamide] | 84
Cn1nc(C(=O)NCc2ccc(C#N)cc2)c2c1C(=O)N(CC1(S(=O)(=O)N3CC[C@H](O)C3)CC1)CC2 [Example 127, (S)-N-(4-Cyanobenzyl)-6-((1-((3-hydroxypyrrolidin-1-yl)sulfonyl)cyclopropyl)methyl)-1-methyl-7-oxo-4,5,6,7-tetrahydro-1H-pyrazolo[3,4-c]pyridine-3-carboxamide] | 67
Cn1nc(C(=O)NCc2ccc(C#N)cc2)c2c1C(=O)N(CC1(S(=O)(=O)NC3CC3)CC1)CC2 [Example 129, N-(4-cyanobenzyl)-6-((1-(N-cyclopropylsulfamoyl)cyclopropyl)methyl)-1-methyl-7-oxo-4,5,6,7-tetrahydro-1H-pyrazolo[3,4-c]pyridine-3-carboxamide] | 213
Cn1nc(C(=O)NCc2ccc(C#N)cc2)c2c1C(=O)N(CC1(S(=O)(=O)NC3COC3)CC1)CC2 [Example 132, N-(4-Cyanobenzyl)-1-methyl-6-((1-(N-(oxetan-3-yl)sulfamoyl)cyclopropyl)methyl)-7-oxo-4,5,6,7-tetrahydro-1H-pyrazolo[3,4-c]pyridine-3-carboxamide] | 451
Cn1nc(C(=O)NCc2ccc(C#N)cc2)c2c1C(=O)N(CC1(S(=O)(=O)N3CCNCC3)CC1)CC2 [Example 133, N-(4-Cyanobenzyl)-1-methyl-7-oxo-6-((1-(piperazin-1-ylsulfonyl)cyclopropyl)methyl)-4,5,6,7-tetrahydro-1H-pyrazolo[3,4-c]pyridine-3-carboxamide] | 258
Cn1nc(C(=O)NCc2ccc(C#N)cc2)c2c1C(=O)N(CC1(S(=O)(=O)NCCCN)CC1)CC2 [Example 134, 6-((1-(N-(3-Aminopropyl)sulfamoyl)cyclopropyl)methyl)-N-(4-cyanobenzyl)-1-methyl-7-oxo-4,5,6,7-tetrahydro-1H-pyrazolo[3,4-c]pyridine-3-carboxamide] | 282
Cn1nc(C(=O)NCc2ccc(C#N)cc2)c2c1C(=O)N(CC1(S(=O)(=O)NCCN)CC1)CC2 [Example 135, 6-((1-(N-(2-Aminoethyl)sulfamoyl)cyclopropyl)methyl)-N-(4-cyanobenzyl)-1-methyl-7-oxo-4,5,6,7-tetrahydro-1H-pyrazolo[3,4-c]pyridine-3-carboxamide] | 1090
CN1CCN(S(=O)(=O)C2(CN3CCc4c(C(=O)NCc5ccc(C#N)cc5)nn(C)c4C3=O)CC2)CC1 [Example 136, N-(4-Cyanobenzyl)-1-methyl-6-((1-((4-methylpiperazin-1-yl)sulfonyl)cyclopropyl)methyl)-7-oxo-4,5,6,7-tetrahydro-1H-pyrazolo[3,4-c]pyridine-3-carboxamide] | 243
